In US20240316047A1, “INHIBITORS OF RNA HELICASE DHX9 AND USES THEREOF” (ACCENT THERAPEUTICS, INC., priority 2022, published 2024):

Molecular target: Human recombinant DHX9 protein (Homo sapiens (Human), UniProt Q08211)
Assay: DHX9 ATPase assay (ADP-Glo)
Assay type: biochemical
Conditions: for IC50: read-out: DHX9 Biochemical Inflection Point

Human recombinant DHX9 protein, sequence (Q08211 whole entry): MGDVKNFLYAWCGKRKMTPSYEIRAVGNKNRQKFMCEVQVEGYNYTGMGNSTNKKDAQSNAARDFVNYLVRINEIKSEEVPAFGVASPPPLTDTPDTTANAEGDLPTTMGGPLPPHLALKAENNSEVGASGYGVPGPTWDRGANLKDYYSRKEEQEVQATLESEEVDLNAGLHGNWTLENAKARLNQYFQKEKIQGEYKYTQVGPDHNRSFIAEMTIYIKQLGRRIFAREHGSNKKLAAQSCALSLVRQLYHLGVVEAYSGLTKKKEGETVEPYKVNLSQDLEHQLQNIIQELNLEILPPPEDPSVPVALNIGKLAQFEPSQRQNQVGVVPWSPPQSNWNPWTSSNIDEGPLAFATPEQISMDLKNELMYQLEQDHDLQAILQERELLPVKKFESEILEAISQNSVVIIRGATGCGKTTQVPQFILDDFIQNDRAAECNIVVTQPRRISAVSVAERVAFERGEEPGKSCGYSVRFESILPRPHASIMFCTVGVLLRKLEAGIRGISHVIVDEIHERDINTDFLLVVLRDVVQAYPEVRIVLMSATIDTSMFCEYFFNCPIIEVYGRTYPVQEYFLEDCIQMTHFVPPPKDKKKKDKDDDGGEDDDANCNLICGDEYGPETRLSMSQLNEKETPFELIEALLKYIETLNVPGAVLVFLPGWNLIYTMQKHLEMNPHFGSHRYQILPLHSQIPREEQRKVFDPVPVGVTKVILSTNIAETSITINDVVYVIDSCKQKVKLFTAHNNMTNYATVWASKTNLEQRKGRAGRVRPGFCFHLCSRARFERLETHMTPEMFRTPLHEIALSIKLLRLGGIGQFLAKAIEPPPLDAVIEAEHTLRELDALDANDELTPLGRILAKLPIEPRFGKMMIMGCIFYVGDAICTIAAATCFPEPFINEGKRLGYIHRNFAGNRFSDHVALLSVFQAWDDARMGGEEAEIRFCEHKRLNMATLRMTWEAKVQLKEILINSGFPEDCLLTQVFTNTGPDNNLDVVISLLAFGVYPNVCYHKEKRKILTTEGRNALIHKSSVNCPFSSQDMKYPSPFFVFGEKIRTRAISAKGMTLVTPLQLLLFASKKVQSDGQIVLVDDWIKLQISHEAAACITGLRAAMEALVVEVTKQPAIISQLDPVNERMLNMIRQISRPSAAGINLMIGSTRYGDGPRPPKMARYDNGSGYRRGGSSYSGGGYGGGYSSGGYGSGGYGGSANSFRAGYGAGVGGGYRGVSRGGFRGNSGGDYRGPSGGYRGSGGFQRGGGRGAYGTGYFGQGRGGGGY

Compound | DHX9 Biochemical Max Inhibition | IC50 [µM]
Cc1cccnc1-c1cc(C(=O)Nc2cc(Cl)cc(NS(C)(=O)=O)c2)cn1CC(F)F [Example 143, N-(3-chloro-5-(methylsulfonamido)phenyl)-1-(2,2-difluoroethyl)-5-(3-methylpyridin-2-yl)-1H-pyrrole-3-carboxamide] | 66.8% | 
Cn1cc(C(=O)Nc2cc(Cl)cc(NS(C)(=O)=O)c2)cc1-c1c(F)cc(F)cc1F [Example 547] | 81.1 | 0.126
CCS(=O)(=O)Nc1cc(Cl)cc(NC(=O)c2cc(C)n(-c3ncc(F)cc3F)c2)c1 [Example 445] | 70.5 | 0.0808
CS(=O)(=O)Nc1cc(Cl)cc(NC(=O)c2cc(C(=O)Nc3ccccc3)cs2)c1 [Example 166, N2-(3-chloro-5-(methylsulfonamido)phenyl)-N4-phenylthiophene-2,4-dicarboxamide] | 64% | 0.0285
CS(=O)(=O)Nc1cc(Cl)cc(NC(=O)c2cnn([C@@H]3CC[C@H]3O)c2)c1 (single isomer, unassigned) [Example 306a] | 70.6% | 0.127
CS(=O)(=O)Nc1cc(Cl)cc(NC(=O)c2cnn(-c3ncccc3OCc3c[nH]cn3)c2)c1 [Example 254] | 64.1% | 0.0595
Cc1cccc(C#N)c1-n1cc(C(=O)Nc2cc(Br)cc(NS(C)(=O)=O)c2)cn1 [Example 44] | 60.3% | 0.137
CN1CCC(n2cc(C(=O)Nc3cc(Cl)cc(NS(C)(=O)=O)c3)cn2)CC1=O (centres unmarked) [Example 307] | 70.4% | 0.143
CS(=O)(=O)Nc1cc(Cl)cc(NC(=O)c2cc3cc(F)ccc3s2)c1 [Example 295] | 63.8% | 0.307
CS(=O)(=O)Nc1cc(Br)cc(NC(=O)c2cnn(-c3ccccc3C=O)c2)c1 [Example 58] | 44.4% | 0.0849
CS(=O)(=O)Nc1cc(Cl)cc(NC(=O)c2cnn(C3CCCC3)c2)c1 [Example 309] | 60.8% | 0.162
CS(=O)(=O)Nc1cc(Cl)cc(NC(=O)c2cc(-c3ncc(F)cn3)c(C3CC3)s2)c1 [Example 448] | 66.7 | 1.75
Cc1sc(C(=O)Nc2cc(Cl)cc(NS(=O)(=O)CCO)c2)cc1-c1ncc(OC(C)C)cn1 [Example 582] | 49.9 | 0.287
Cc1cc(F)cnc1-c1cc(C(=O)Nc2cc(Cl)cc(NS(C)(=O)=O)c2)cn1C [Example 545] | 64.7 | 0.0742
Cn1cc(C(=O)Nc2cc(F)cc(NS(C)(=O)=O)c2)cc1-c1ncc(F)cc1F [Example 558] | 78 | 0.0458
CC(C)Oc1cnc(-c2csc(C(=O)Nc3cc(Cl)cc(NS(C)(=O)=O)c3)c2)c(F)c1 [Example 458] | 60.2 | 

Compound | DHX9 Biochemical Max Inhibition | IC50 [µM]
CS(=O)(=O)Nc1cc(Br)cc(NC(=O)c2cnn(-c3ccccc3CO)c2)c1 [Example 161, N-(3-bromo-5-(methylsulfonamido)phenyl)-1-(2-(hydroxymethyl)phenyl)-1H-pyrazole-4-carboxamide] | 44.9% | 0.0484
CS(=O)(=O)Nc1cc(Cl)cc(NC(=O)c2cc(N3CCNCC3)cs2)c1 [Example 244] | 71.9% | 0.0733
Cc1sc(C(=O)Nc2cc(Cl)cc(NS(C)(=O)=O)c2)cc1-c1ncccc1OC(C)c1cc(F)cc(F)c1 (single isomer, unassigned) [Example 632] | 71.5 | 0.241
CN(C)S(=O)(=O)c1ccc(-n2cc(C(=O)Nc3cc(Cl)cc(NS(C)(=O)=O)c3)cn2)nc1 [Example 200] | 57.7% | 0.0846
CS(=O)(=O)Nc1cc(Cl)cc(NC(=O)c2cc(-c3ccccc3)n(CC(F)(F)F)c2)c1 [Example 80] | 71.2% | 0.493
CC(=O)N1CCN(c2ccc(-n3cc(C(=O)Nc4cc(Br)cc(NS(C)(=O)=O)c4)cn3)nc2)CC1 [Example 86, 1-(5-(4-acetylpiperazin-1-yl)pyridin-2-yl)-N-(3-bromo-5-(methylsulfonamido)phenyl)-1H-pyrazole-4-carboxamide] | 51.5% | 0.0184
CS(=O)(=O)Nc1cc(Cl)cc(NC(=O)c2cc3c(F)c(F)ccc3s2)c1 [Example 324] | 63.1% | 0.164
CS(=O)(=O)Nc1cc(Br)cc(NC(=O)c2cnn(-c3ccc(F)cn3)c2)c1 [Example 39] | 52.3% | 0.0701
Cc1sc(C(=O)Nc2cc(Cl)cc(NS(C)(=O)=O)c2)c(F)c1-c1ncc(OC(C)C)cn1 [Example 683] | 62.5 | 1.71
CS(=O)(=O)Nc1cc(Cl)cc(NC(=O)c2cc3c(F)cccn3c2)c1 [Example 305] | 63.8% | 0.0953
CCS(=O)(=O)Nc1cc(Cl)cc(NC(=O)c2cc(-c3ncc(C(F)(F)F)cn3)c(C)s2)c1 [Example 366] | 76.2% | 0.0467
Cn1cc(C(=O)Nc2cc(Cl)cc(NS(C)(=O)=O)c2)cc1-c1ncc(OC2CN(C(=O)C3CC3)C2)cc1F [Example 697] | 59.5 | 0.0409
Cc1cc(C(=O)Nc2cc(Cl)cc(NS(C)(=O)=O)c2)cn1-c1ccc(OC(C)(C)C)cn1 [Example 663] | 66.3 | 0.033
Cc1cc(C(=O)Nc2cc(Cl)cc(NS(=O)(=O)C(F)F)c2)cn1-c1ccc(N2CCOCC2)cn1 [Example 248] | 70.8% | 0.185
Cc1cc(C)c2cc(C(=O)Nc3cc(Cl)cc(NS(C)(=O)=O)c3)cn2c1 [Example 328] | 67.6% | 0.422

More lines, in order of falling IC50, values ahead:

DHX9 Biochemical Max Inhibition | IC50 [µM] | Compound
75.8 | 0.0294 | Cn1cc(C(=O)Nc2cc(Cl)cc(NS(C)(=O)=O)c2)cc1-c1ncncc1OCc1cc(F)cc(F)c1 [Example 627]
78% | 0.0292 | Cc1cc(C(=O)Nc2cc(Cl)cc(NS(C)(=O)=O)c2)cn1-c1ccc(N2CCN(C(=O)C(C)C)CC2)cn1 [Example 283]
72.1 | 0.0292 | Cc1sc(C(=O)Nc2cc(Cl)cc(NS(C)(=O)=O)c2)cc1-c1ncc(N2CCC(F)(F)CC2)cc1F [Example 471]
68.1 | 0.0285 | Cn1cc(C(=O)Nc2cc(Cl)cc(NS(C)(=O)=O)c2)cc1-c1ccc(Cl)cn1 [Example 576]
72.7% | 0.026 | COc1ccc(-n2cc(C(=O)Nc3cc(Cl)cc(NS(C)(=O)=O)c3)cn2)nc1 [Example 197]
65.9 | 0.0235 | CC(=O)N1CCN(c2cc(F)cnc2-c2cc(C(=O)Nc3cc(Cl)cc(NS(C)(=O)=O)c3)sc2C)CC1 [Example 504]
69.3 | 0.0205 | Cc1cc(C(=O)Nc2cc(Cl)cc(NS(C)(=O)=O)c2)cn1-c1ccc(N2CCCC2=O)cn1 [Example 410]
48.7% | 0.0187 | Cc1ccc(-n2cc(C(=O)Nc3cc(Br)cc(NS(C)(=O)=O)c3)cn2)nc1 [Example 42]
67.5 | 0.0174 | Cn1cc(C(=O)Nc2cc(Cl)cc(NS(C)(=O)=O)c2)cc1-c1ncc(F)cc1F [Example 540, N-(3-chloro-5-methanesulfonamidophenyl)-5-(3,5-difluoropyridin-2-yl)-1-methyl-1H-pyrrole-3-carboxamide]
70.25 | 0.017 | Cc1cc(C(=O)Nc2cc(Cl)cc(NS(C)(=O)=O)c2)cn1-c1ncc(N2CC(F)(F)C2)cn1 [Example 418]
70.9 | 0.0167 | CCc1sc(C(=O)Nc2cc(Cl)cc(NS(C)(=O)=O)c2)cc1-c1ncccc1F [Example 587]
79.7% | 0.016 | CS(=O)(=O)Nc1cc(Cl)cc(NC(=O)c2cc(-c3ncccc3NC(=O)C3CC3)cs2)c1 [Example 220]
79.9% | 0.0155 | CCOc1cnc(-n2cc(C(=O)Nc3cc(Cl)cc(NS(C)(=O)=O)c3)cc2C)nc1 [Example 208]
82.8 | 0.0155 | COc1ccc(-c2cc(C(=O)Nc3cc(Cl)cc(NS(C)(=O)=O)c3)cn2C)nc1 [Example 573]
87.8 | 0.0126 | Cn1cc(C(=O)Nc2cc(Cl)cc(NS(C)(=O)=O)c2)cc1-c1ncc(F)cc1OCc1nnnn1C [Example 625]
65.8% | 0.0111 | CN1CCN(c2cnc(-n3cc(C(=O)Nc4cc(Cl)cc(NS(C)(=O)=O)c4)cn3)c(OCc3cccnc3)c2)CC1=O [Example 193]
81.6 | 0.0108 | COc1cc(N2CC(F)(F)C2)cnc1-n1cc(C(=O)Nc2cc(Cl)cc(NS(C)(=O)=O)c2)cc1C [Example 421]
72.2 | 0.0105 | Cc1cc(C(=O)Nc2cc(Cl)cc(NS(C)(=O)=O)c2)cn1-c1ncc(N2CCOCC2)cc1F [Example 412]
61% | 0.0086 | CS(=O)(=O)Nc1cc(Br)cc(NC(=O)c2cc(-c3cnccn3)cs2)c1 [Example 18]
71.4% | 0.0065 | Cn1cc(C(=O)Nc2cc(Cl)cc(NS(C)(=O)=O)c2)cc1-c1ccc(N2CCOCC2)cn1 [Example 273]
72.7 | 0.003 | Cc1sc(C(=O)Nc2cc(Cl)cc(NS(C)(=O)=O)c2)cc1-c1ncc(OC2CN(C)C2)cn1 [Example 609, N-(3-chloro-5-methanesulfonamidophenyl)-5-methyl-4-{5-[(1-methylazetidin-3-yl)oxy]pyrimidin-2-yl}thiophene-2-carboxamide]
71% | 0.0025 | Cc1sc(C(=O)Nc2cc(Cl)cc(NS(C)(=O)=O)c2)cc1-c1ncccn1 [Example 22]
